Measurements from ChEMBL document CHEMBL4840335, “Rational Design and Development of Novel CDK9 Inhibitors for the Treatment of Acute Myeloid Leukemia” (J Med Chem, 2021).
Calls of active or inactive are those of the source. The rule behind the calls is not given here.

Key:
[1] = biological target: Cyclin-dependent kinase 2 (Homo sapiens, UniProt P24941); test: Inhibition of CDK2 (unknown origin)
[2] = biological target: Cyclin-dependent kinase 6 (Homo sapiens, UniProt Q00534); test: Inhibition of CDK6 (unknown origin)
[3] = biological target: Cyclin-dependent kinase 7 (Homo sapiens, UniProt P50613); test: Inhibition of CDK7 (unknown origin)
[4] = biological target: Hepatocyte growth factor receptor (Homo sapiens, UniProt P08581); test: Inhibition of Met (unknown origin)
Hepatocyte growth factor receptor, sequence (P08581 whole entry): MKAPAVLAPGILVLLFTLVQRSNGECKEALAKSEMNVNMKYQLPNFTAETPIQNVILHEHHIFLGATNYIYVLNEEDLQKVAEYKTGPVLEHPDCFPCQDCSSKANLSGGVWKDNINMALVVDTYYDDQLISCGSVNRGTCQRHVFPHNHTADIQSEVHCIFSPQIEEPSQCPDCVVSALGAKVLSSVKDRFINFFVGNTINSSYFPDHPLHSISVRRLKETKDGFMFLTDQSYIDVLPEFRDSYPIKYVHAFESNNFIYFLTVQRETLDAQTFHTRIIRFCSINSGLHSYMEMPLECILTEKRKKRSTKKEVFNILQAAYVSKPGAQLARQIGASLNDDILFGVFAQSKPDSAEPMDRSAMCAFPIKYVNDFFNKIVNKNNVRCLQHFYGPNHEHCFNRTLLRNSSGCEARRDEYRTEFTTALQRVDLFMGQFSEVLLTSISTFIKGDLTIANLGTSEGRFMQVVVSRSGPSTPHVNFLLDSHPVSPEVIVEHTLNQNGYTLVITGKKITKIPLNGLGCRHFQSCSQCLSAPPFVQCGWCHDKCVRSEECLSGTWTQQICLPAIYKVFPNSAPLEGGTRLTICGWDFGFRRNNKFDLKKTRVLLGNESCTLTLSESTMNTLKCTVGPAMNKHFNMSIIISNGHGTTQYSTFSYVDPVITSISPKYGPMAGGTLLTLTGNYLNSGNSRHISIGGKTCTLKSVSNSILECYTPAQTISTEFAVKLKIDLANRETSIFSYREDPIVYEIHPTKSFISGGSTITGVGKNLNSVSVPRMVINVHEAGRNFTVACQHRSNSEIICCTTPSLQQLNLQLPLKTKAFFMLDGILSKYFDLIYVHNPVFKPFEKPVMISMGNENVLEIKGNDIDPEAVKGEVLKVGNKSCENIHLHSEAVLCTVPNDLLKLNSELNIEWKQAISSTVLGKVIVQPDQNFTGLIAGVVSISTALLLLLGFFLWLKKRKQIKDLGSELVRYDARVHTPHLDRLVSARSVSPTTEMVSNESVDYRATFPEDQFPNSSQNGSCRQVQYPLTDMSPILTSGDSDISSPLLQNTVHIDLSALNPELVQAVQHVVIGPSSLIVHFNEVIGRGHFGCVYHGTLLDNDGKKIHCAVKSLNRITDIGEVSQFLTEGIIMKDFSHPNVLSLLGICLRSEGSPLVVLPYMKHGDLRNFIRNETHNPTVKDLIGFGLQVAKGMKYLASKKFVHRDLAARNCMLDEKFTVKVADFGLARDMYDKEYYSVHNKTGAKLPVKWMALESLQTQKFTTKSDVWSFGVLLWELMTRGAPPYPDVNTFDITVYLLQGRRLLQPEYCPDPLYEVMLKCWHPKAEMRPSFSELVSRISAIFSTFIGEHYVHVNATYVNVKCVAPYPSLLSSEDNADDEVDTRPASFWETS

[5] = biological target: ALK tyrosine kinase receptor (Homo sapiens, UniProt Q9UM73); test: Inhibition of ALK (unknown origin)
ALK tyrosine kinase receptor, sequence (Q9UM73 whole entry): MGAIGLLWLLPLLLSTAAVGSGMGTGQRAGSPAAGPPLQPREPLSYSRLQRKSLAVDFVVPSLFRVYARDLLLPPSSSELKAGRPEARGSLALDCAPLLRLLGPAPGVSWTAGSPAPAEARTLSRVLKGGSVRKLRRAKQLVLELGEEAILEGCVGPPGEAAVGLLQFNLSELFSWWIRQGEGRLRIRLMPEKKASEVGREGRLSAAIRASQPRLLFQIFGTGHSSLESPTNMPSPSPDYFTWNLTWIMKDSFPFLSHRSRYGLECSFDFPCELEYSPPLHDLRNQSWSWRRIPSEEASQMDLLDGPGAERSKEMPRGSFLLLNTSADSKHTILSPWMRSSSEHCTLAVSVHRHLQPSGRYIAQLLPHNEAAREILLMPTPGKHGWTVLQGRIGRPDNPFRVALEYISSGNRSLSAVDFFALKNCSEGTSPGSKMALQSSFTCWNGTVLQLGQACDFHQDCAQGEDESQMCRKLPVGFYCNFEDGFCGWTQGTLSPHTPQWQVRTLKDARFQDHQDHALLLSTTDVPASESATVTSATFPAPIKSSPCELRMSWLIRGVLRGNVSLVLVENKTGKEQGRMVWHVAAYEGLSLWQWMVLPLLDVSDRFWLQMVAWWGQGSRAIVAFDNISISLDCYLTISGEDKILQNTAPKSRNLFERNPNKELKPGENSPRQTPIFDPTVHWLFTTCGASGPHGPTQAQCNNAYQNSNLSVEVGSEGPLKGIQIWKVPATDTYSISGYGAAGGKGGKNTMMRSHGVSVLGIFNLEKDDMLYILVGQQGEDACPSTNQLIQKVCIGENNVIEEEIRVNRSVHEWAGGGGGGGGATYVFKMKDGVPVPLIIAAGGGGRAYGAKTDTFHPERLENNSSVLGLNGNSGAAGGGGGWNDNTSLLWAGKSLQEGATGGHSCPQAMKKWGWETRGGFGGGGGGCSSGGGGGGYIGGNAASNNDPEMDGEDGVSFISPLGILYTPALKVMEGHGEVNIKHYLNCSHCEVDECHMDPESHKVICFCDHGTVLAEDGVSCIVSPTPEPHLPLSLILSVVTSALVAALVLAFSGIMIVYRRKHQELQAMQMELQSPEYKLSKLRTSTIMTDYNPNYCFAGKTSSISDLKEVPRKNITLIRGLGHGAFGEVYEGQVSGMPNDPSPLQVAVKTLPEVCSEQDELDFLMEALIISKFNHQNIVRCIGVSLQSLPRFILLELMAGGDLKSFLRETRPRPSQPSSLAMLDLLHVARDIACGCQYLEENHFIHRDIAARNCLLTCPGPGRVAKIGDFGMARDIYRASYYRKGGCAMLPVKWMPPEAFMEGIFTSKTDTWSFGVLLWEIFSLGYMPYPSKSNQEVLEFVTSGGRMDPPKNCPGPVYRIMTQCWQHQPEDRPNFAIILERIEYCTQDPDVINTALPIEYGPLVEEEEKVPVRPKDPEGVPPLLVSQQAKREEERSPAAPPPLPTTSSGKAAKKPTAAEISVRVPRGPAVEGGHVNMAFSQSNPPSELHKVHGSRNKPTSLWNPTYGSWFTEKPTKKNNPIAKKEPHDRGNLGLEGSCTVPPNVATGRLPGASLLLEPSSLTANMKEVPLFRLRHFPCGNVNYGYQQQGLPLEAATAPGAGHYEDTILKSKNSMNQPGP

[6] = biological target: Tyrosine-protein kinase receptor TYRO3 (Homo sapiens, UniProt Q06418); test: Inhibition of TYRO3 (unknown origin)
[7] = biological target: Proto-oncogene tyrosine-protein kinase receptor Ret (Homo sapiens, UniProt P07949); test: Inhibition of RET (unknown origin)
[8] = biological target: Fibroblast growth factor receptor 1 (Homo sapiens, UniProt P11362); test: Inhibition of FGFR1 (unknown origin)
[9] = biological target: Fibroblast growth factor receptor 4 (Homo sapiens, UniProt P22455); test: Inhibition of FGFR4 (unknown origin)
[10] = biological target: Platelet-derived growth factor receptor alpha (Homo sapiens, UniProt P16234); test: Inhibition of PDGFRA (unknown origin)
Platelet-derived growth factor receptor alpha, sequence (P16234 whole entry): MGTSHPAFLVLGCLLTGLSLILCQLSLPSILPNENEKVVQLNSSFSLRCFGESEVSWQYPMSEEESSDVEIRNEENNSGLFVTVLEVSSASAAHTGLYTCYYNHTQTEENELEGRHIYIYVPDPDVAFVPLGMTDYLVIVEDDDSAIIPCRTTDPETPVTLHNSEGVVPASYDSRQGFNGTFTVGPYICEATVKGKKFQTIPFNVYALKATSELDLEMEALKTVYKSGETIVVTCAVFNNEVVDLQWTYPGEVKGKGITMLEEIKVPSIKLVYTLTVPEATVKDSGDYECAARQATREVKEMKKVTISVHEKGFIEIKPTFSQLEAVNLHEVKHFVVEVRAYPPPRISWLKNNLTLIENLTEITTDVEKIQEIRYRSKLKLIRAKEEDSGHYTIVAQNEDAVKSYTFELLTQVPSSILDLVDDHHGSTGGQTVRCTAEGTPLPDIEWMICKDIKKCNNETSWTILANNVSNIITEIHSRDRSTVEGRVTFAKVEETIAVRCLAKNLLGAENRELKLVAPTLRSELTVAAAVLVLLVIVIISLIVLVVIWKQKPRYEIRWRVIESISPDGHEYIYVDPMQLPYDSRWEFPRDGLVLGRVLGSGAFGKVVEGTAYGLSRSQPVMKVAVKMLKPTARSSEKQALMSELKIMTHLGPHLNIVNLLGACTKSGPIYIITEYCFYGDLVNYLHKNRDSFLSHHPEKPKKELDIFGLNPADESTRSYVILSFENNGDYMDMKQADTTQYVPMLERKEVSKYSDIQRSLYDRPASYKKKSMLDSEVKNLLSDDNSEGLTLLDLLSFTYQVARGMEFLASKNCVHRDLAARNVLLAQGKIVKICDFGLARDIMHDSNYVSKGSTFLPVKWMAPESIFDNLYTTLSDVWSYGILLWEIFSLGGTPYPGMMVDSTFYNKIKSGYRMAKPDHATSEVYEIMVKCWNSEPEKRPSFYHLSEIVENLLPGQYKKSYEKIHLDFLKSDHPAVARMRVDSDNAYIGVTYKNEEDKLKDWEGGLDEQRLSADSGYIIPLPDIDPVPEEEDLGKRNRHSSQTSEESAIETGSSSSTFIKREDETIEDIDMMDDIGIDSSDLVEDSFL

[11] = biological target: Platelet-derived growth factor receptor beta (Homo sapiens, UniProt P09619); test: Inhibition of PDGFRB (unknown origin)
[12] = biological target: Proto-oncogene tyrosine-protein kinase Src (Homo sapiens, UniProt P12931); test: Inhibition of SRC (unknown origin)
[13] = biological target: Tyrosine-protein kinase ABL1 (Homo sapiens, UniProt P00519); test: Inhibition of ABL (unknown origin)
Ephrin type-A receptor 2 = Ephrin type-A receptor 2 (Homo sapiens, UniProt P29317); test: Inhibition of EPHA2 (unknown origin)
[14] = biological target: Tyrosine-protein kinase BTK (Homo sapiens, UniProt Q06187); test: Inhibition of BTK (unknown origin)
Wee1-like protein kinase = Wee1-like protein kinase (Homo sapiens, UniProt P30291); test: Inhibition of WEE1 (unknown origin)
Aurora kinase A = Aurora kinase A (Homo sapiens, UniProt O14965); test: Inhibition of AURKA (unknown origin)
Aurora kinase A, sequence (O14965 whole entry): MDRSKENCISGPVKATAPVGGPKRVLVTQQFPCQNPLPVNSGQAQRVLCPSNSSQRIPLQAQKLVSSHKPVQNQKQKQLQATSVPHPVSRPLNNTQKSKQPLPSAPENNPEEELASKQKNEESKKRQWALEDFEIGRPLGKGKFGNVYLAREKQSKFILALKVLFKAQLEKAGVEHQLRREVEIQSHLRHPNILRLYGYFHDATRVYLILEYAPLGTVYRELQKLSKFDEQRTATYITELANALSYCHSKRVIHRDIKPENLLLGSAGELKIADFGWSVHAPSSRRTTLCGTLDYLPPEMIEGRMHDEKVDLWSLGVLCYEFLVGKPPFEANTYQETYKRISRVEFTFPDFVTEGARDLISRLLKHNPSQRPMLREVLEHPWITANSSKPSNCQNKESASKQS

[15] = Antiproliferative activity against human MINO cells assessed as reduction in cell proliferation measured after 3 to 7 days by MTS assay; assay type: functional, cell-based
JeKo-1 = test: Antiproliferative activity against human JeKo-1 cells assessed as reduction in cell proliferation measured after 3 to 7 days by MTS assay; assay type: functional, cell-based
OCI-Ly10 = test: Antiproliferative activity against human OCILY10 cells assessed as reduction in cell proliferation measured after 3 to 7 days by MTS assay; assay type: functional, cell-based
Kasumi 1 = test: Antiproliferative activity against human Kasumi 1 cells assessed as reduction in cell proliferation measured after 3 to 7 days by MTS assay; assay type: functional, cell-based
MV4-11 [16] = test: Antiproliferative activity against human MV4-11 cells assessed as reduction in cell proliferation measured after 3 to 7 days by MTS assay; assay type: functional, cell-based
[17] = biological target: Cyclin-dependent kinase 9 (Homo sapiens) (UniProt P50750); test: Inhibition of CDK9 in human MV4-11 cells assessed as reduction in RNAP2 phosphorylation at ser2 residues at 1 to 10 uM after 12 hrs by Western blot analysis; assay type: cell-based; conditions: dose 1-10 µM
Cyclin-dependent kinase 9 (Homo sapiens), sequence (P50750 whole entry): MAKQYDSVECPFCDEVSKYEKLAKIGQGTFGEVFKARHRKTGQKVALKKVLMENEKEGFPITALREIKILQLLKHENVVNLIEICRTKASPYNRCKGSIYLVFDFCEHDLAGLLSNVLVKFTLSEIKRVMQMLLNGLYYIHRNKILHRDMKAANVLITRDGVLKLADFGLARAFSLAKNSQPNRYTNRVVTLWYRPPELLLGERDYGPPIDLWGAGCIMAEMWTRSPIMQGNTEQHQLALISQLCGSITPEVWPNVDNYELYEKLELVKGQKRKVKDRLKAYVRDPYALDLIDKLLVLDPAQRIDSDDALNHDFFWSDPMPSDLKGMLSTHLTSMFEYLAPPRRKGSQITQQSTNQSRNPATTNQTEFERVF

[18] = biological target: Cyclin-dependent kinase 9 (Homo sapiens) (UniProt P50750); test: Inhibition of CDK9 in human MV4-11 cells assessed as reduction in RNAP2 phosphorylation at ser5 residues at 1 to 10 uM after 12 hrs by Western blot analysis; assay type: cell-based; conditions: dose 1-10 µM
[19] = Tmax in ICR mouse at 20 mg/kg, po measured up to 24 hrs; assay type: ADME, organism-based; conditions: in vivo
MV4-11 [20] = test: Induction of apoptosis in human MV4-11 cells assessed as activation of caspase-3 at 5 to 50 nM measured after 24 hrs by Western blot analysis; assay type: functional, cell-based; conditions: dose 5-50 nM
MV4-11 [21] = test: Induction of apoptosis in human MV4-11 cells assessed as necrotic cells at 10 nM measured after 24 hrs by annexinV-FITC/propidium iodide staining based flow cytometry (reference value: 1.03 %); assay type: functional
MV4-11 [22] = test: Induction of apoptosis in human MV4-11 cells assessed as late apoptotic cells at 50 nM measured after 24 hrs by annexinV-FITC/propidium iodide staining based flow cytometry (reference value: 3.04 %); assay type: functional
MV4-11 [23] = test: Induction of apoptosis in human MV4-11 cells assessed as necrotic cells at 50 nM measured after 24 hrs by annexinV-FITC/propidium iodide staining based flow cytometry (reference value: 1.03 %); assay type: functional
[24] = Cmax in ICR mouse at 20 mg/kg, po measured up to 24 hrs; assay type: ADME, organism-based; set-up: route oral, dose 20 mg/kg, time <=24; conditions: in vivo
[25] = AUClast in ICR mouse at 20 mg/kg, po measured up to 24 hrs; assay type: ADME, organism-based; set-up: route oral, dose 20 mg/kg, time <=24; conditions: in vivo
[26] = MRT in ICR mouse at 20 mg/kg, po measured up to 24 hrs; assay type: ADME, organism-based; conditions: in vivo
[27] = Observed AUC infinity in ICR mouse at 2 mg/kg, iv measured up to 24 hrs; assay type: ADME, organism-based; set-up: route intravenous, dose 2 mg/kg, time <=24; conditions: in vivo
[28] = Half life in ICR mouse at 2 mg/kg, iv measured up to 24 hrs; assay type: ADME, organism-based; conditions: in vivo
[29] = Observed clearance in ICR mouse at 2 mg/kg, iv measured up to 24 hrs; assay type: ADME, organism-based; conditions: in vivo
MV4-11 [30] = test: Antitumor activity against human MV4-11 cells xenografted in Nu/Nu mouse assessed as inhibition of tumor growth at 7.5 mg/kg, po administered for 21 consecutive days by digital caliper method relative to control; assay type: functional; conditions: MV4-11, po, 504 h, time 21 day

Structure (SMILES): Cc1n[nH]c2ccc(-c3cc(N[C@@H](CO)c4ccccc4)cnc3Cl)cc12
- IC50 [1]: 164 nM
- IC50 [2]: > 1000 nM
- IC50 [3]: > 1000 nM
- IC50 [4]: > 1000 nM
- IC50 [5]: > 1000 nM
- IC50 [6]: > 1000 nM
- IC50 [7]: > 1000 nM
- IC50 [8]: > 1000 nM
- IC50 [9]: > 1000 nM
- IC50 [10]: > 1000 nM
- IC50 [11]: > 1000 nM
- IC50 [12]: > 1000 nM
- IC50 [13]: > 1000 nM
- IC50 (Ephrin type-A receptor 2): > 1000 nM
- IC50 [14]: > 1000 nM
- IC50 (Wee1-like protein kinase): > 1000 nM
- IC50 (Aurora kinase A): > 1000 nM
- IC50 [15]: 8.4 nM
- IC50 (JeKo-1): 46 nM
- IC50 (OCI-Ly10): 3.2 nM
- IC50 (Kasumi 1): 21 nM
- IC50 (MV4-11 [16]): 1.6 nM
- inhibition [17]: inactive
- inhibition [18]: inactive
- Tmax [19]: 4.98 min
- Activity (MV4-11 [20]): Active
- Activity (MV4-11 [21]): 0.84%
- Activity (MV4-11 [22]): 16.89%
- Activity (MV4-11 [23]): 3.59%
- Cmax [24]: 1570 ng/mL
- AUC(0-t) at 24 h [25]: 1760 ng·h/mL
- MRT [26]: 5.99 h
- AUC(0-inf) [27]: 558 ng·h/mL
- half-life [28]: 1.81 h
- clearance [29]: 60 mL/min/kg
- inhibition in vivo at 7.5 mg/kg (MV4-11 [30]): 77.4%
